Laboratory results taken from paper PMC7714403 (JCI Insight, 2020).

Tests used:
[1] = target: T1, JAK2 (Homo sapiens, UniProt O60674); test: KdELECT binding assay
T1 construct: purchased Eurofins DiscoverX

[2] = target: T2, CSF1R (Homo sapiens, UniProt P07333); test: KdELECT binding assay
T2 construct: purchased Eurofins DiscoverX

[3] = tested on: HS5 human MSCs; test: MTT viability assay of stromal cells; type: cell-based
Description: Cell viability of primary samples
HS5-GFP human bone marrow stromal cells were plated and cultured for 72 hours to near confluence.
MOLM13 cells were then seeded onto HS5-GFP cells to establish a co-culture. Twenty-four hours later, cells were treated with increasing concentrations of drug for an additional 72 hours. MOLM13 and HS5-GFP cells were then separated and MTT assay s were performed for cell viability assessment of each cell population.
For murine or human primary AML cells, 100,000 cells/well were plated in a 96-well plate and treated with increasing concentrations of drug. Cell viability, via trypan blue, was measured every 24 hours. If the viability fell below 50% or at 72 hours of treatment, whichever came earlier, cell viability of each plate was measured via CellTiter-Glo. Primary human AML cells were obtained from the OSUCCC Leukemia Tissue Bank Shared […]
For primary human fibroblasts, cells were plated at 10,000 cells/well in a 96-well plate and cultured for 24 hours. After 24 hours, cells were treated with drug for 72 hours. A MTT assay was performed to assess cell […]
Primary AML samples were analyzed by targeted gene sequencing of 80 genes, as previously described (1). Samples were pooled and analyzed on a MiSeq system using the Illuminia MiSeq Reagent Kit v3. Ill umina Isis Banded Smith Waterman aligner and hg19 genome were used to align the sequences. […]

[4] = target: T3, AurA (Homo sapiens, UniProt O14965); test: KiNativ, OCI cells live cell; type: cell-based; conditions: 2 h
T3 sequence (O14965 1-403): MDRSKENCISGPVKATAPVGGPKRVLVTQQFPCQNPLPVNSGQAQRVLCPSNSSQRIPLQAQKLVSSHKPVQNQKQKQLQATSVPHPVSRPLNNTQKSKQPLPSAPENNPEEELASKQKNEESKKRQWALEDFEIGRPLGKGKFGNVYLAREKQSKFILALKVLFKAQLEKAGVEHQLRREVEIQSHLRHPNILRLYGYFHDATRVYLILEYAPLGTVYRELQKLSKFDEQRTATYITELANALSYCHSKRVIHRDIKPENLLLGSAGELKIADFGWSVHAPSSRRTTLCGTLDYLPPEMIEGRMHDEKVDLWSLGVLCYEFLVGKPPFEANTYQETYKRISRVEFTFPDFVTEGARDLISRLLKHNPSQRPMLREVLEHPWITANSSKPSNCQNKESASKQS

[5] = target: IRAK2 (Homo sapiens, UniProt O43187); test: KiNativ, OCI cells live cell; type: cell-based; conditions: 2 h, labeling site Lys1, peptide […]
[6] = target: T4, LATS1 (Homo sapiens, UniProt O95835); test: KiNativ, OCI cells live cell; type: cell-based; conditions: 2 h
T4 sequence (O95835 1-1130): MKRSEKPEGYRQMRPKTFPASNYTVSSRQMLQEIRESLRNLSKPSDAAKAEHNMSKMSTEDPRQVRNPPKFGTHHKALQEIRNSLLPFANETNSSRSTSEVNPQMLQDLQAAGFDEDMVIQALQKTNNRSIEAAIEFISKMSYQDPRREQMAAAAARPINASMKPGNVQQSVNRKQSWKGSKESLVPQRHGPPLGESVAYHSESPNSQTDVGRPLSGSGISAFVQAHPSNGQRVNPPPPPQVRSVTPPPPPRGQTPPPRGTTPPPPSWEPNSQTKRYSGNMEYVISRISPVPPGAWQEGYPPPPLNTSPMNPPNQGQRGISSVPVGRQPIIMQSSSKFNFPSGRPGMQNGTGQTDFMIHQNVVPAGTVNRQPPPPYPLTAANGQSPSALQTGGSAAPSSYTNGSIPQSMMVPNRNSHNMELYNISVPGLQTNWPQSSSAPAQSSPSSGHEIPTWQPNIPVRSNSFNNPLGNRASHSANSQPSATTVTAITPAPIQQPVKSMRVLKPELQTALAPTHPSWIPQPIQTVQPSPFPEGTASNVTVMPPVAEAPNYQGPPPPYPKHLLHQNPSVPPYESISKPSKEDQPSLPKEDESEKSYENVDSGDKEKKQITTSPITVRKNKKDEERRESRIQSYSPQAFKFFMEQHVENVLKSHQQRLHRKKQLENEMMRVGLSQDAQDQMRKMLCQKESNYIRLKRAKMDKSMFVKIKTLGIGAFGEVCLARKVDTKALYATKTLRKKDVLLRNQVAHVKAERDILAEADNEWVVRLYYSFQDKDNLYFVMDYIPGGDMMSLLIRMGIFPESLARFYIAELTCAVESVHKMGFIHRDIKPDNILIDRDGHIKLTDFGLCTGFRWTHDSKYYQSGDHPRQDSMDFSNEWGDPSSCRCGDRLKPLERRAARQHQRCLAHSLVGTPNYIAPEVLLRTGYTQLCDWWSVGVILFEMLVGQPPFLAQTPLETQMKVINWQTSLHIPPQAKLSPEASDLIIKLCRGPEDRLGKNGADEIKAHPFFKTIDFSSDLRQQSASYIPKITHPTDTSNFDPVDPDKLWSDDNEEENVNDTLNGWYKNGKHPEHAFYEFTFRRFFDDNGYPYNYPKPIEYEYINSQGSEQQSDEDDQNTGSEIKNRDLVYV

[7] = target: T5, MSK1 domain1 (Homo sapiens, UniProt O75582); test: KiNativ, OCI cells live cell; type: cell-based; conditions: 2 h, labeling site Lys2, peptide […]
T5 construct: MSK1 domain1

[8] = target: TBK1 (Homo sapiens, UniProt Q9UHD2); test: KiNativ, OCI cells live cell; type: cell-based; conditions: 2 h, labeling site Lys1, peptide […]
Sequence of TBK1 (Q9UHD2 whole entry): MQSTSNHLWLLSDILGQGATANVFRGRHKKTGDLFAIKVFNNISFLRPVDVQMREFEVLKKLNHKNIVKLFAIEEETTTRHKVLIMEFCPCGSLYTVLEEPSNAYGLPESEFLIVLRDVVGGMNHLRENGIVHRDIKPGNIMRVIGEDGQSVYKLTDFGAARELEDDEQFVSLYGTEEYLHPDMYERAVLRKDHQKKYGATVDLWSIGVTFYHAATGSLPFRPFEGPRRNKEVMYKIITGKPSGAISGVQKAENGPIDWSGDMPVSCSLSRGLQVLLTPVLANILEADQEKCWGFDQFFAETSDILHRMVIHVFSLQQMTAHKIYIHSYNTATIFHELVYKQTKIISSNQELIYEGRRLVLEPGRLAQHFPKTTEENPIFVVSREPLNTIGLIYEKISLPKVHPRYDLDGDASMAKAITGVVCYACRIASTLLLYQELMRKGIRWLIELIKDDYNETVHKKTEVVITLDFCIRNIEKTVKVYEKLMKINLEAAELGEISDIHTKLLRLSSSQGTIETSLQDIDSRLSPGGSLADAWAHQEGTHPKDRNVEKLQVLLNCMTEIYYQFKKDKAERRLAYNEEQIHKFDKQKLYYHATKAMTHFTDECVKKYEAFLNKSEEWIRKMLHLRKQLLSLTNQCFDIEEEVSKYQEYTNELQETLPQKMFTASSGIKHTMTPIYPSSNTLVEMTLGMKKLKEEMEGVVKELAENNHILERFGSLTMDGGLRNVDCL

Sequence of IRAK2 (O43187 whole entry): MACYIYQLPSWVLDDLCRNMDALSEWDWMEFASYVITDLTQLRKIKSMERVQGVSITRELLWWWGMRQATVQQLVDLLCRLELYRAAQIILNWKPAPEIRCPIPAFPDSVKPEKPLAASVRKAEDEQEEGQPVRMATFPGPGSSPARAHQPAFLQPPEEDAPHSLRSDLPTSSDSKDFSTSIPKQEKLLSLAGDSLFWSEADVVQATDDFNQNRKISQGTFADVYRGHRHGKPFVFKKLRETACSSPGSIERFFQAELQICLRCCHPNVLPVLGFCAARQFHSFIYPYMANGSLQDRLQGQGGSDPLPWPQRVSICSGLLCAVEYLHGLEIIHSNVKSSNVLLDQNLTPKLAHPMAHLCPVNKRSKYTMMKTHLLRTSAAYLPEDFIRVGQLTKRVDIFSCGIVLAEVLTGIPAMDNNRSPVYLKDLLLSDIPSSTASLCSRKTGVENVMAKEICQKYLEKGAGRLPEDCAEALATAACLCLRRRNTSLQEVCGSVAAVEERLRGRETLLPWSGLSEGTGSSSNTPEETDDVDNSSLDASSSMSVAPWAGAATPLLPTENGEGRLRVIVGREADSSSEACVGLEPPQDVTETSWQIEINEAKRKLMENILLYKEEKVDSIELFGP
T2 sequence (P07333 20-972): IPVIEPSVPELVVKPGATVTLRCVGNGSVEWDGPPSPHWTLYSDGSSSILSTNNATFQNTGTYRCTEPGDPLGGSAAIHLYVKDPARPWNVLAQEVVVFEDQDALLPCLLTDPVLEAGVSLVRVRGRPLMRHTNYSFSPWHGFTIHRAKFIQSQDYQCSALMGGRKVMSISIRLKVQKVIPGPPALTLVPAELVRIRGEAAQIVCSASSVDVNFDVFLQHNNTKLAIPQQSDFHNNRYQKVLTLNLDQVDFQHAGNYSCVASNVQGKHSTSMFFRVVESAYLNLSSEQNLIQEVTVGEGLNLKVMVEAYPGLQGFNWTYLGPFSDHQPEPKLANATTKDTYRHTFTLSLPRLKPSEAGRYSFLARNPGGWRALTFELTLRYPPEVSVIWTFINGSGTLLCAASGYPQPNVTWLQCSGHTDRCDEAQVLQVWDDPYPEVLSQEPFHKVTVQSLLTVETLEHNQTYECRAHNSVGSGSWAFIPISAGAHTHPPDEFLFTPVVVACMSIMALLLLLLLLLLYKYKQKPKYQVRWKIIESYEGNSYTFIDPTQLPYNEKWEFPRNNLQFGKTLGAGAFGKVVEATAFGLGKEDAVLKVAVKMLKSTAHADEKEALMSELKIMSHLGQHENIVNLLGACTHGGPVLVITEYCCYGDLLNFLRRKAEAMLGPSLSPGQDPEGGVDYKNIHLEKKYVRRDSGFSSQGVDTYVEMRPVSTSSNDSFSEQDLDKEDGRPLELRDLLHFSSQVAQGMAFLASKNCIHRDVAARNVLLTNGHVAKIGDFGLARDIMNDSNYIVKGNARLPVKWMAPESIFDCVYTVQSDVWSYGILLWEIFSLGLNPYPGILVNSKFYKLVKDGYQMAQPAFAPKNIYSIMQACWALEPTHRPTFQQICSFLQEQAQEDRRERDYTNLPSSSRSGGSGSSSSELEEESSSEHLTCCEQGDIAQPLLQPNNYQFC
T1 sequence (O60674 whole entry): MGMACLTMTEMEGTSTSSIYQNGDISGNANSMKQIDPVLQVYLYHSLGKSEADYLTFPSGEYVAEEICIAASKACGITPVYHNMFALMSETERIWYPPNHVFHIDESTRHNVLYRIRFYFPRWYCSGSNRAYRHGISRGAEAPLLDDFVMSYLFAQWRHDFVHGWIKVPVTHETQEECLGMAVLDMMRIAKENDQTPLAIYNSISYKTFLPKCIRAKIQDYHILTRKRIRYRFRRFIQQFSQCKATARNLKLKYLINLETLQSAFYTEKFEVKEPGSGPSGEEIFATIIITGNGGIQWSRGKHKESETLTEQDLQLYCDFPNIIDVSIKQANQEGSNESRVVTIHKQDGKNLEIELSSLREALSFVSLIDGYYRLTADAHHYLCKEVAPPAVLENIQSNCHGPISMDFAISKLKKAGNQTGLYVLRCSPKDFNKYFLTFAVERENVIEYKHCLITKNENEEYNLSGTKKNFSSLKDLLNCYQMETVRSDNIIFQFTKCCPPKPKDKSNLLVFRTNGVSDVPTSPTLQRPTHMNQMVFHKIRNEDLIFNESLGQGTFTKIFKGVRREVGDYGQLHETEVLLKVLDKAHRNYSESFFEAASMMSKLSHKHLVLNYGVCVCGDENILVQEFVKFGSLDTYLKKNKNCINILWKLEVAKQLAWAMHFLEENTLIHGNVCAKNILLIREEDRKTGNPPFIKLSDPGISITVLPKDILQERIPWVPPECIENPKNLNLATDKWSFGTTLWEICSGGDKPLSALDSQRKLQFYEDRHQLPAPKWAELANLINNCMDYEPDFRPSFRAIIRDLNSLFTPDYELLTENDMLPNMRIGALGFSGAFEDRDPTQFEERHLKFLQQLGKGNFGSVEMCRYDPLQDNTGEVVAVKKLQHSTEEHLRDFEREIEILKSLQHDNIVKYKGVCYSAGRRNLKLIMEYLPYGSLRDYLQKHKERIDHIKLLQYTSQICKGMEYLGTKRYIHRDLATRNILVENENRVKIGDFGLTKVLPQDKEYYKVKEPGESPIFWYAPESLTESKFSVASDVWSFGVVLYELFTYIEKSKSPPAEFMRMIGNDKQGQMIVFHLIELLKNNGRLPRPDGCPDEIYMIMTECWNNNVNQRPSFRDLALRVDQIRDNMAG
T5 sequence (O75582 whole entry, the tested form may be a part): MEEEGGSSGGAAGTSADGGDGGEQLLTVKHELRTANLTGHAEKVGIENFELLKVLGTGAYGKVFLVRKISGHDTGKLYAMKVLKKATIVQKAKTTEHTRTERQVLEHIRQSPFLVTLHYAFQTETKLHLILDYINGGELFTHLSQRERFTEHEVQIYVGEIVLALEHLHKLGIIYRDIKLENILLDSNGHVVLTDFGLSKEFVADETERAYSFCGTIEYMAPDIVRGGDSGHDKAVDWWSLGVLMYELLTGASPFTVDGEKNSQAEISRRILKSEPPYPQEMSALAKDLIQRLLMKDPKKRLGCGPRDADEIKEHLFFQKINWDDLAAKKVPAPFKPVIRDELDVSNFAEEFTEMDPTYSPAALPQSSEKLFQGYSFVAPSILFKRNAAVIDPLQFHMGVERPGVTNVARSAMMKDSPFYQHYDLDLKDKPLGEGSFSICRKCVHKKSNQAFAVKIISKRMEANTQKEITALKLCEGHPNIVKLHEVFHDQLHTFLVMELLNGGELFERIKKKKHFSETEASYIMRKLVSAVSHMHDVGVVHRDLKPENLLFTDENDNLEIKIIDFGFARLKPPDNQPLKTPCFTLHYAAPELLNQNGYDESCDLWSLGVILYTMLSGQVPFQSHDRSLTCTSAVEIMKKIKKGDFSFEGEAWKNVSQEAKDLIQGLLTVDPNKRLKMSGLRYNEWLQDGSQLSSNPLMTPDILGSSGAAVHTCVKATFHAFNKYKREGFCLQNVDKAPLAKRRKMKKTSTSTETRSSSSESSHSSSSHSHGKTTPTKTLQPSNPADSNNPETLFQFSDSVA

SMILES: CN1CCN(Cc2ccc(Nc3ncc(Cl)c(Nc4ccccc4S(=O)(=O)N(C)C)n3)cc2)CC1 [TP-0903]
- Kd [1]: < 5 nM
- Kd [2]: 16 nM
- Concentrations not cytotoxic to HS5 human MSCs [3]: < 250 nM
- inhibition at 0.1 µM ([4]; labeling site Lys1, peptide FILALKVLFK): 89.9%
- inhibition at 0.1 µM ([4]; labeling site Lys2, peptide DIKPENLLLGSAGELK): 90.7%
- inhibition at 0.1 µM [5]: -9.1%
- inhibition at 0.1 µM ([6]; labeling site Lys1, peptide ALYATKTLR): 11.6%
- inhibition at 0.1 µM ([6]; labeling site Lys2, peptide DIKPDNILIDR): 7.9%
- inhibition at 0.1 µM [7]: 8.3%
- inhibition at 0.1 µM [8]: 83%
